Laboratory results published in patent publication US7700782B2, “Compounds 569” (AstraZeneca AB, priority 2007, dated 2010).
Counter-ions that a name gives are not always drawn.

biological target: T1, Adrenergic β2 (Homo sapiens, UniProt P07550); assay: Adrenergic β2 mediated cAMP production in H292 cells (AlphaScreen cAMP detection); type: cell-based; details: Intrinsic Activity, fraction relative to the maximum activity determined for formoterol
T1 construct: Adherent H292 cells were removed from tissue culture flasks; endogenous in cells; host or cells: H292 cells
In short: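 H292 cells, 5000/well, preincubated 10 min with rolipram (final 300 μM, 1.6% DMSO) in HEPES pH 7.4 HBSS, then compound 60 min at room temperature. Lysate cAMP quantified by AlphaScreen against a cAMP standard curve. pEC50 and intrinsic activity (fraction of formoterol maximum) from four-parameter logistic fits.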

T1 sequence (P07550 whole entry): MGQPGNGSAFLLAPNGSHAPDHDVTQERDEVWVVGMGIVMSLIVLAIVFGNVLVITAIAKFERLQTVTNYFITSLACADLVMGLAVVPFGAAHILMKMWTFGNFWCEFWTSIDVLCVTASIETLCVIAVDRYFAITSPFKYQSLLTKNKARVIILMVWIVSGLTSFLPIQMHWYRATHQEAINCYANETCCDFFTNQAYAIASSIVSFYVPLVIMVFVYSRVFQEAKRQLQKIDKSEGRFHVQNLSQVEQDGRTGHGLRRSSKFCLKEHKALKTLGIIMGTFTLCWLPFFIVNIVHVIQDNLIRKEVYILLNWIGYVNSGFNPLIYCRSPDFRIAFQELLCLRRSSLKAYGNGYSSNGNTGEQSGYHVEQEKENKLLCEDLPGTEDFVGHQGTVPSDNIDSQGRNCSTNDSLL

Point of comparison: Cc1ccccc1CCNCCC(=O)N(CCNCCc1ccc(O)c2[nH]c(=O)sc12)C1CCOCC1 [Example 27, N-(2-{[2-(4-Hydroxy-2-oxo-2,3-dihydro-1,3-benzothiazol-7-yl)ethyl]amino}ethyl)-N^3-[2-(2-methylphenyl)ethyl]-N-(tetrahydro-2H-pyran-4-yl)-β-alaninamide bis-trifluoroacetic acid salt], “β2 Int Act” value 0.95. Against it:
- O=C(CCNCCc1cccc(F)c1)N(CCNCCc1ccc(O)c2[nH]c(=O)sc12)C1CCCCC1 [Example 96, N-Cyclohexyl-N^3-[2-(3-fluorophenyl)ethyl]-N-(2-{[2-(4-hydroxy-2-oxo-2,3-dihydro-1,3-benzothiazol-7-yl)ethyl]amino}ethyl)-β-alaninamide dihydrobromide salt] — lower, 0.85
- CC(=O)OCC(C)(C)CN(CCNCCc1ccc(O)c2[nH]c(=O)sc12)C(=O)CCNCCc1ccc(Cl)cc1 [Example 39, 3-[{N-[2-(4-Chlorophenyl)ethyl]-β-alanyl}(2-{[2-(4-hydroxy-2-oxo-2,3-dihydro-1,3-benzothiazol-7-yl)ethyl]amino}ethyl)amino]-2,2-dimethylpropyl acetate diacetic acid salt] — lower, 0.58
- O=C(CCNCCc1cc(F)cc(F)c1)N(CCNCCc1ccc(O)c2[nH]c(=O)sc12)C1CCCCCC1 [Example 58, N^1-Cycloheptyl-N^3-[2-(3,5-difluorophenyl)ethyl]-N^1-(2-{[2-(4-hydroxy-2-oxo-2,3-dihydro-1,3-benzothiazol-7-yl)ethyl]amino}ethyl)-β-alaninamide bis-trifluoroacetic acid salt] — lower, 0.84
- O=C(CCNCCC(F)(F)F)N(CCNCCc1ccc(O)c2[nH]c(=O)sc12)C1CCCCC1 [Example 80, N^1-Cyclohexyl-N^1-(2-{[2-(4-hydroxy-2-oxo-2,3-dihydro-1,3-benzothiazol-7-yl)ethyl]amino}ethyl)-N^3-(3,3,3-trifluoropropyl)-β-alaninamide bis-trifluoroacetic acid salt] — lower, 0.86
- O=C(CCNCCc1cccc(F)c1)N(CCNCCc1ccc(O)c2[nH]c(=O)sc12)CC12CC3CC(CC(C3)C1)C2 [Example 60, N^1-(1-Adamantylmethyl)-N^3-[2-(3-fluorophenyl)ethyl]-N^1-(2-{[2-(4-hydroxy-2-oxo-2,3-dihydro-1,3-benzothiazol-7-yl)ethyl]amino}ethyl)-β-alaninamide bis-trifluoroacetic acid salt] — lower, 0.76
- O=C(CCNC[C@H](O)c1ccccc1)N(CCNCCc1ccc(O)c2[nH]c(=O)sc12)C1CCCCC1 [Example 75, N^1-Cyclohexyl-N^1-(2-{[2-(4-hydroxy-2-oxo-2,3-dihydro-1,3-benzothiazol-7-yl)ethyl]amino}ethyl)-N^3-[(2R)-2-hydroxy-2-phenylethyl]-β-alaninamide bis-trifluoroacetic acid salt] — lower, 0.91
- C[C@H](CNCCC(=O)N(CCNCCc1ccc(O)c2[nH]c(=O)sc12)C1CCCC1)c1ccccc1 [Example 31, N-cyclopentyl-N-(2-{[2-(4-hydroxy-2-oxo-2,3-dihydro-1,3-benzothiazol-7-yl)ethyl]amino}ethyl)-N^3-[(2S)-2-phenylpropyl]-β-alaninamide bis-trifluoroacetic acid salt] — lower, 0.92
- COc1ccc(CCNCCC(=O)N(CCNCCc2ccc(O)c3[nH]c(=O)sc23)C2CCCCC2)cc1 [Example 68, N^1-Cyclohexyl-N^1-(2-{[2-(4-hydroxy-2-oxo-2,3-dihydro-1,3-benzothiazol-7-yl)ethyl]amino}ethyl)-N^3-[2-(4-methoxyphenyl)ethyl]-β-alaninamide bis-trifluoroacetic acid salt] — lower, 0.68
- O=C(CCNCCc1ccc(F)c(F)c1)N(CCNCCc1ccc(O)c2[nH]c(=O)sc12)C1CCCCCC1 [Example 53, N^1-Cycloheptyl-N^3-[2-(3,4-difluorophenyl)ethyl]-N^1-(2-{[2-(4-hydroxy-2-oxo-2,3-dihydro-1,3-benzothiazol-7-yl)ethyl]amino}ethyl)-β-alaninamide bis-trifluoroacetic acid salt] — lower, 0.74
- CCCC[C@H](C)N(CCNCCc1ccc(O)c2[nH]c(=O)sc12)C(=O)CCNCCc1ccccc1 [Example 102, N-(2-{[2-(4-Hydroxy-2-oxo-2,3-dihydro-1,3-benzothiazol-7-yl)ethyl]amino}ethyl)-N-[(1S)-1-methylpentyl]-N^3-(2-phenylethyl)-β-alaninamide bis-trifluoroacetic acid salt] — lower, 0.23
- CCCC[C@@H](C)N(CCNCCc1ccc(O)c2[nH]c(=O)sc12)C(=O)CCNCCc1ccccc1 [Example 101, N-(2-{[2-(4-Hydroxy-2-oxo-2,3-dihydro-1,3-benzothiazol-7-yl)ethyl]amino}ethyl)-N-[(1R)-1-methylpentyl]-N^3-(2-phenylethyl)-β-alaninamide bis-trifluoroacetic acid salt] — higher, 0.98
- O=C(CCNCCc1cc(F)ccc1F)N(CCNCCc1ccc(O)c2[nH]c(=O)sc12)C1CCCCC1 [Example 79, N^1-Cyclohexyl-N^3-[2-(2,5-difluorophenyl)ethyl]-N^1-(2-{[2-(4-hydroxy-2-oxo-2,3-dihydro-1,3-benzothiazol-7-yl)ethyl]amino}ethyl)-β-alaninamide bis-trifluoroacetic acid salt] — lower, 0.84
- O=C(CCNCCc1ccc(Cl)cc1)N(CCNCCc1ccc(O)c2[nH]c(=O)sc12)C1CCC(F)(F)CC1 [Example 48, N^3-[2-(4-Chlorophenyl)ethyl]-N^1-(4,4-difluorocyclohexyl)-N^1-(2-{[2-(4-hydroxy-2-oxo-2,3-dihydro-1,3-benzothiazol-7-yl)ethyl]amino}ethyl)-β-alaninamide bis-trifluoroacetic acid salt] — lower, 0.55
- O=C(CCNCCc1ccccc1Cl)N(CCNCCc1ccc(O)c2[nH]c(=O)sc12)C1CCC(F)(F)CC1 [Example 46, N^3-[2-(2-Chlorophenyl)ethyl]-N^1-(4,4-difluorocyclohexyl)-N^1-(2-{[2-(4-hydroxy-2-oxo-2,3-dihydro-1,3-benzothiazol-7-yl)ethyl]amino}ethyl)-β-alaninamide bis-trifluoroacetic acid salt] — lower, 0.78
- Cc1cccc(CCNCCC(=O)N(CCNCCc2ccc(O)c3[nH]c(=O)sc23)CC(C)(C)C)c1 [Example 10, N-(2,2-Dimethylpropyl)-N-(2-{[2-(4-hydroxy-2-oxo-2,3-dihydro-1,3-benzothiazol-7-yl)ethyl]amino}ethyl)-N^3-[2-(3-methylphenyl)ethyl]-β-alaninamide bis-trifluoroacetic acid salt] — lower, 0.69
- CC(C)(CO)CN(CCNCCc1ccc(O)c2[nH]c(=O)sc12)C(=O)CCNCCc1cccc(Cl)c1Cl [Example 67, N^3-[2-(2,3-Dichlorophenyl)ethyl]-N^1-(3-hydroxy-2,2-dimethylpropyl)-N^1-(2-{[2-(4-hydroxy-2-oxo-2,3-dihydro-1,3-benzothiazol-7-yl)ethyl]amino}ethyl)-β-alaninamide bis-trifluoroacetic acid salt] — lower, 0.70
- O=C(CCNCCc1cccc(Cl)c1)N(CCNCCc1ccc(O)c2[nH]c(=O)sc12)C1Cc2ccccc2C1 [Example 42, N^3-[2-(3-Chlorophenyl)ethyl]-N^1-(2,3-dihydro-1H-inden-2-yl)-N^1-(2-{[2-(4-hydroxy-2-oxo-2,3-dihydro-1,3-benzothiazol-7-yl)ethyl]amino}ethyl)-β-alaninamide bis-trifluoroacetic acid salt] — lower, 0.82
- CC(C)(CO)CN(CCNCCc1ccc(O)c2[nH]c(=O)sc12)C(=O)CCNCCc1ccccc1Cl [Example 65, N^3-[2-(2-Chlorophenyl)ethyl]-N^1-(3-hydroxy-2,2-dimethylpropyl)-N^1-(2-{[2-(4-hydroxy-2-oxo-2,3-dihydro-1,3-benzothiazol-7-yl)ethyl]amino}ethyl)-β-alaninamide bis-trifluoroacetic acid salt] — lower, 0.59
- COc1cccc(CCNCCC(=O)N(CCNCCc2ccc(O)c3[nH]c(=O)sc23)CC(C)(C)C)c1 [Example 43, N^1-(2,2-Dimethylpropyl)-N^1-(2-{[2-(4-hydroxy-2-oxo-2,3-dihydro-1,3-benzothiazol-7-yl)ethyl]amino}ethyl)-N^3-[2-(3-methoxyphenyl)ethyl]-β-alaninamide bis-trifluoroacetic acid salt] — lower, 0.67
- CC(C)(C)CN(CCNCCc1ccc(O)c2[nH]c(=O)sc12)C(=O)CCNCCc1ccc(Cl)c(Cl)c1 [Example 9, N^3-[2-(3,4-Dichlorophenyl)ethyl]-N-(2,2-dimethylpropyl)-N-(2-{[2-(4-hydroxy-2-oxo-2,3-dihydro-1,3-benzothiazol-7-yl)ethyl]amino}ethyl)-β-alaninamide bis-trifluoroacetic acid salt] — lower, 0.65
- C[C@@H](CNCCC(=O)N(CCNCCc1ccc(O)c2[nH]c(=O)sc12)C1CCCCC1)c1ccccc1 [Example 20, N-Cyclohexyl-N-(2-{[2-(4-hydroxy-2-oxo-2,3-dihydro-1,3-benzothiazol-7-yl)ethyl]amino}ethyl)-N^3-[(2R)-2-phenylpropyl]-β-alaninamide bis-trifluoroacetic acid salt] — higher, 0.97
